Source: patent US20260265329A1, “POLYPEPTIDE AND DERIVATIVE THEREOF, COMPOSITION, AND USE THEREOF” (HANGZHOU SCIWIND BIOSCIENCES CO., LTD., priority 2023, published 2026)
Starred links: 1 amine or outer side, 2 acyl side, 3 side chain; linkers in the order of their positions; H or OH if unused. Residues, ends and D or L forms follow the SMILES beside them. No end group written: not given here. *: point of attachment. C20 diacid = O=C(O)CCCCCCCCCCCCCCCCCCC(=O)*; γGlu = O=C(O)[C@H](CCC(=O)[*:2])N[*:1]

Tests used:
human amylin receptors = biological target: T1, human amylin receptors (Homo sapiens, UniProt O60896+P30988); test: Luciferase assay in stably transfected amylin receptor/CRE-luc CHO cell line; assay type: cell-based
T1 construct: host or cells: CHO-K1/Ga15/AMY3 cells, further stably transfected with a CRE-luciferase plasmid
T1 sequence (P30988 25-474): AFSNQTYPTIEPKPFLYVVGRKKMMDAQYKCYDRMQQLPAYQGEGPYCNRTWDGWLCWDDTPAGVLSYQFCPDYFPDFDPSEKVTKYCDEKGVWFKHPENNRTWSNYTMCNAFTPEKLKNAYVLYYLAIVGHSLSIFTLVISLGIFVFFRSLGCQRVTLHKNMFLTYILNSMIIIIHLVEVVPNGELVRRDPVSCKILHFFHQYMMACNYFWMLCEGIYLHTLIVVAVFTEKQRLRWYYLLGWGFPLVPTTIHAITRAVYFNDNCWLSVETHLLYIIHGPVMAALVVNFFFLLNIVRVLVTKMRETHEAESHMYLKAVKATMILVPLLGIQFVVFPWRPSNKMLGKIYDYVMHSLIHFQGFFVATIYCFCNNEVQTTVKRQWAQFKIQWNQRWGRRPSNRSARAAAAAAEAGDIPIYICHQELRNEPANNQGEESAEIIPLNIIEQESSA
T1 sequence (O60896 24-148 partner): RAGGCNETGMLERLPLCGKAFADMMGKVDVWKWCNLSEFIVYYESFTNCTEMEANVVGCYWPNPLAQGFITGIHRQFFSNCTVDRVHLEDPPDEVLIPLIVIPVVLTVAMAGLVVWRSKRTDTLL

[1] = Heat accelerated stability assay, 40° C., detection on 7 d and 28 d; assay type: physicochemical
Summary of the method: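 Reversed-phase HPLC (214 nm, 0.05% TFA water/acetonitrile gradient, column 25° C.) measured polypeptide concentration and purity in centrifuged supernatants on days 7 and 28. Samples: 1 mg/mL derivative with 1.42 mg/mL sodium dihydrogen phosphate, pH about 7.4, filtered and held at 40° C.; physical changes also recorded.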

[2] = Animal study in SD rats (Example 4), weight change and food consumption; assay type: in vivo; conditions: 30 nmol/kg subcutaneous (FIGS. 2A, 2B)
Protocol: SPF male SD rats (7-8 weeks, 200-250 g) were employed in this study after health inspection and quarantine. The experimental animals were exposed to a room temperature of 20° C.-23° C. and a relative humidity of 40%-50%, and were provided with Co60 mouse reproduction feed 1035 and purified water supplied with water feeding bottles for free intake throughout the health inspection and quarantine and the study. Based on their mean body weight, 5 rats were assigned to each testing group for the derivatives. The rats were subcutaneously administered the derivatives at a dose of 30 nmol/kg or a vehicle (PBS pH7.4), and the dosing timepoint was recorded for each group. After dosing, the rats were put back into cages where they lived and could have access to food and water. Food consumption and weight change of the rats were recorded online or manually every 24 hours.

[3] = in vivo, background statement; cited from earlier work
[4] = cited from earlier work

Relative activity (human amylin receptors; EC50 ratio of Cagrilintide to the compound, Cagrilintide 100%) [%] | EC50 (human amylin receptors; amylin receptor/CRE-luc CHO cells, 24 hours incubation, luminescence) [nM] | Purity from the reversed phase chromatography-214 nm, 0 d ([1]; 1 mg/mL, pH about 7.4, 40° C., 0 d) | Purity from the reversed phase chromatography-214 nm, 7 d ([1]; 1 mg/mL, pH about 7.4, 40° C., 7 d) | Purity from the reversed phase chromatography-214 nm, 28 d ([1]; 1 mg/mL, pH about 7.4, 40° C., 28 d) | Change of spectra of reversed phase chromatography after heat acceleration ([1]; after 7 days or even 1 month, 40° C. (FIG. 1)) | Change (7 d − 0 d) ([1]; purity on 7 d − purity on 0 d, 40° C., pH about 7.4) | Change (28 d − 0 d) ([1]; purity on 28 d − purity on 0 d, 40° C., pH about 7.4) | Molecule | Activity on weight loss and food intake compared with Cagrilintide [2] | half-life [3] | fibrillation ([4]; background statement) | chemical stability ([4]; pH 7, background statement)
62 | 0.042 | 91.52 | 90.98 | 92.33 | almost no change | −0.54 | 0.81 | CC[C@H](C)[C@H](NC(=O)[C@H](CC(=O)O)NC(=O)[C@H](CCCNC(=N)N)NC(=O)[C@H](CC(=O)O)NC(=O)[C@H](CCCNC(=N)N)NC(=O)[C@H](CC(=O)O)NC(=O)[C@@H](NC(=O)[C@H](Cc1ccccc1)NC(=O)[C@H](Cc1c[nH]cn1)NC(=O)[C@H](CCCNC(=N)N)NC(=O)[C@H](CC(C)C)NC(=O)[C@H](Cc1ccccc1)NC(=O)[C@H](CC(=O)O)NC(=O)[C@H](C)NC(=O)[C@H](CC(C)C)NC(=O)[C@H](CCCNC(=N)N)NC(=O)[C@H](CCC(N)=O)NC(=O)[C@@H](NC(=O)[C@H](C)NC(=O)[C@H](C)NC(=O)[C@@H](NC(=O)[C@H](CO)NC(=O)[C@H](CC(C)C)NC(=O)[C@H](CCC(N)=O)NC(=O)[C@H](CO)NC(=O)[C@H](C)NC(=O)CC[C@H](NC(=O)CCCCCCCCCCCCCCCCCCC(=O)O)C(=O)O)[C@@H](C)O)[C@@H](C)O)[C@@H](C)O)C(=O)N[C@@H](CC(C)C)C(=O)N1CCC[C@H]1C(=O)N1CCC[C@H]1C(=O)N[C@H](C(=O)N[C@@H](CC(N)=O)C(=O)N[C@H](C(=O)NCC(=O)N[C@@H](CO)C(=O)N[C@@H](CC(N)=O)C(=O)N[C@H](C(=O)N1CCC[C@H]1C(N)=O)[C@@H](C)O)C(C)C)[C@@H](C)O [M6] ({C20 diacid-γGlu}-ASQLSTAATQRLADFLRHFTDRDRDILPPTNVGSNTP-NH2) | the most active one with an activity notably higher than Cagrilintide | – | – | –
– | – | – | – | – | – | – | – | Amylin (KCNTATCATQRLANFLVHSSNNFGAILSSTNVGSNTY; not fully specified (C-terminus, bridges); cysteine pairing not given here; UniProt P10997 34-70, looked up) [polypeptide hormone consisting of 37 amino acids, member of the calcitonin protein family] | – | short half-life in vivo | strong tendency towards fibrillation | chemical instability at pH 7
